Measurements published in the supplement of paper PMC8617591.

Experiments:
[1] = system: Mycobacterium tuberculosis Erdman (autoluminescent); experiment: total FIC50 (Loewe) at 50% inhibition, three-drug combination (log2); higher = more antagonistic
Protocol: (§1)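 DiaMOND equipotent three-drug combination dose responses (10 doses, 1.5- or 2-fold spacing, centred on IC90) against autoluminescent M. tuberculosis Erdman in 8 in vitro models. Read-out is OD600, or luminescence for the intracellular and dormancy models, normalised to untreated wells. Hill-fit Einf, AUC25 and GRinf are potency metrics; FIC50 and FIC90 are total Loewe fractional inhibitory concentrations as log2 (negative = synergy).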

[2] = system: Mycobacterium tuberculosis Erdman (autoluminescent); experiment: total FIC90 (Loewe) at 90% inhibition, three-drug combination (log2); higher = more antagonistic
Protocol: as §1

[3] = system: Mycobacterium tuberculosis Erdman (autoluminescent); experiment: Einf, fitted maximum growth inhibition of three-drug combination (fraction); higher = stronger maximal inhibition
Protocol: as §1

[4] = system: Mycobacterium tuberculosis Erdman (autoluminescent); experiment: AUC25, normalised area under dose response up to IC25 (three-drug combination) (fraction (0-1)); higher = more potent at low dose
Protocol: as §1

[5] = system: Mycobacterium tuberculosis Erdman (autoluminescent); experiment: GRinf, maximum normalised growth rate inhibition (three-drug combination) (unitless (-1 to 1)); higher = less effect (negative = killing)
Protocol: as §1

COc1nc2ccc(Br)cc2cc1[C@@H](c1ccccc1)[C@@](O)(CCN(C)C)c1cccc2ccccc12 [bedaquiline] + NNC(=O)c1ccncc1 [isoniazid] + CC(=O)NC[C@H]1CN(c2ccc(N3CCOCC3)c(F)c2)C(=O)O1 [linezolid]
Conditions | AUC25, [4] | Einf, [3] | GRinf, [5] | total FIC50, [1] | total FIC90, [2]
in vitro model: acidic pH 5.7, time point: constant (~7 days, model-specific) | 0.106 | 0.912 | -0.504 | 0.42 | –
in vitro model: acidic pH 5.7, time point: terminal (~4-5 doublings, model-specific) | 0.099 | 0.977 | -0.207 | 0.426 | 0.522
in vitro model: intracellular J774, time point: constant = terminal | – | 0.898 | -0.0256 | – | 0.82

Conditions | AUC25, [4] | Einf, [3] | GRinf, [5] | total FIC50, [1] | total FIC90, [2]
in vitro model: butyrate, time point: constant (~7 days, model-specific) | 0.0832 | 0.917 | -0.00837 | 0.739 | 1.08
in vitro model: butyrate, time point: terminal (~4-5 doublings, model-specific) | 0.0647 | 0.962 | -0.0285 | 0.794 | 0.944
in vitro model: cholesterol 0.05 mM, time point: constant (~7 days, model-specific) | 0.139 | 0.735 | -0.291 | 0.27 | –
in vitro model: cholesterol 0.05 mM, time point: terminal (~4-5 doublings, model-specific) | 0.147 | 0.945 | -0.463 | 4.34 | 0.413
in vitro model: cholesterol-high 0.2 mM, time point: constant (~7 days, model-specific) | 0.114 | 0.955 | -0.63 | 0.506 | 1.92
in vitro model: cholesterol-high 0.2 mM, time point: terminal (~4-5 doublings, model-specific) | 0.0961 | 1 | -0.702 | 0.549 | 0.793
in vitro model: dormancy (butyrate + nitrate, low O2), time point: constant (~7 days, model-specific) | 0.0688 | 0.93 | 0.215 | 0.921 | 0.532
in vitro model: dormancy (butyrate + nitrate, low O2), time point: terminal (~4-5 doublings, model-specific) | 0.0346 | 0.989 | -0.127 | 0.777 | 0.255
in vitro model: standard 7H9 glycerol, time point: constant = terminal | 0.0715 | 0.957 | -0.0711 | 0.0514 | -0.28
in vitro model: valerate, time point: constant (~7 days, model-specific) | 0.107 | 0.928 | -0.345 | 0.58 | 0.911
in vitro model: valerate, time point: terminal (~4-5 doublings, model-specific) | 0.0588 | 0.959 | -0.111 | 0.894 | 0.84

COc1nc2ccc(Br)cc2cc1[C@@H](c1ccccc1)[C@@](O)(CCN(C)C)c1cccc2ccccc12 [bedaquiline] + NNC(=O)c1ccncc1 [isoniazid] + CO[C@H]1/C=C/O[C@@]2(C)Oc3c(C)c(O)c4c(O)c(c(/C=N/N5CCN(C6CCCC6)CC5)c(O)c4c3C2=O)NC(=O)/C(C)=C\C=C\[C@H](C)[C@H](O)[C@@H](C)[C@@H](O)[C@@H](C)[C@H](OC(C)=O)[C@@H]1C [rifapentine]
Conditions | AUC25, [4] | Einf, [3] | GRinf, [5] | total FIC50, [1] | total FIC90, [2]
in vitro model: acidic pH 5.7, time point: constant (~7 days, model-specific) | 0.0986 | 0.958 | -0.468 | 0.854 | –
in vitro model: acidic pH 5.7, time point: terminal (~4-5 doublings, model-specific) | 0.0903 | 0.998 | -0.375 | 0.671 | 0.815
in vitro model: intracellular J774, time point: constant = terminal | – | 0.92 | -0.0955 | – | 0.118

Conditions | AUC25, [4] | Einf, [3] | GRinf, [5] | total FIC50, [1] | total FIC90, [2]
in vitro model: butyrate, time point: constant (~7 days, model-specific) | 0.0748 | 0.93 | -0.0408 | 0.749 | -0.0255
in vitro model: butyrate, time point: terminal (~4-5 doublings, model-specific) | 0.0596 | 0.969 | -0.0505 | 0.65 | 0.51
in vitro model: cholesterol 0.05 mM, time point: constant (~7 days, model-specific) | 0.0859 | 0.689 | -0.113 | 0.606 | –
in vitro model: cholesterol 0.05 mM, time point: terminal (~4-5 doublings, model-specific) | 0.0803 | 0.905 | -0.101 | 0.573 | 0.195
in vitro model: cholesterol-high 0.2 mM, time point: constant (~7 days, model-specific) | 0.0656 | 0.954 | -0.564 | 0.787 | –
in vitro model: cholesterol-high 0.2 mM, time point: terminal (~4-5 doublings, model-specific) | 0.06 | 1 | -0.621 | 0.962 | 0.847
in vitro model: dormancy (butyrate + nitrate, low O2), time point: constant (~7 days, model-specific) | 0.0684 | 0.89 | 0.303 | 0.628 | 0.878
in vitro model: dormancy (butyrate + nitrate, low O2), time point: terminal (~4-5 doublings, model-specific) | 0.0424 | 0.986 | -0.0574 | 0.557 | 0.296
in vitro model: standard 7H9 glycerol, time point: constant = terminal | 0.0599 | 0.942 | -0.00945 | 0.229 | -0.235
in vitro model: valerate, time point: constant (~7 days, model-specific) | 0.0499 | 0.906 | -0.146 | 0.867 | –
in vitro model: valerate, time point: terminal (~4-5 doublings, model-specific) | 0.0394 | 0.958 | -0.122 | 1.05 | 1

COc1nc2ccc(Br)cc2cc1[C@@H](c1ccccc1)[C@@](O)(CCN(C)C)c1cccc2ccccc12 [bedaquiline] + NNC(=O)c1ccncc1 [isoniazid] + CO[C@H]1/C=C/O[C@@]2(C)Oc3c(C)c(O)c4c(O)c(c(/C=N/N5CCN(C)CC5)c(O)c4c3C2=O)NC(=O)/C(C)=C\C=C\[C@H](C)[C@H](O)[C@@H](C)[C@@H](O)[C@@H](C)[C@H](OC(C)=O)[C@@H]1C [rifampicin]
Conditions | AUC25, [4] | Einf, [3] | GRinf, [5] | total FIC50, [1] | total FIC90, [2]
in vitro model: acidic pH 5.7, time point: constant (~7 days, model-specific) | 0.108 | 0.955 | -0.45 | 0.796 | –
in vitro model: acidic pH 5.7, time point: terminal (~4-5 doublings, model-specific) | 0.089 | 0.99 | -0.282 | 0.663 | 0.706
in vitro model: intracellular J774, time point: constant = terminal | – | 0.965 | -0.25 | – | 0.354

Conditions | AUC25, [4] | Einf, [3] | GRinf, [5] | total FIC50, [1] | total FIC90, [2]
in vitro model: butyrate, time point: constant (~7 days, model-specific) | 0.102 | 0.946 | -0.0859 | 0.575 | 0.602
in vitro model: butyrate, time point: terminal (~4-5 doublings, model-specific) | 0.0879 | 0.977 | -0.052 | 0.331 | 0.56
in vitro model: cholesterol 0.05 mM, time point: constant (~7 days, model-specific) | 0.0808 | 0.689 | -0.157 | -0.117 | –
in vitro model: cholesterol 0.05 mM, time point: terminal (~4-5 doublings, model-specific) | 0.0785 | 0.918 | -0.164 | 0.536 | -0.254
in vitro model: cholesterol-high 0.2 mM, time point: constant (~7 days, model-specific) | 0.0768 | 0.978 | -0.43 | 0.606 | –
in vitro model: cholesterol-high 0.2 mM, time point: terminal (~4-5 doublings, model-specific) | 0.0551 | 0.998 | -0.606 | 0.868 | 0.598
in vitro model: dormancy (butyrate + nitrate, low O2), time point: constant (~7 days, model-specific) | 0.0706 | 0.908 | 0.222 | 0.635 | 0.621
in vitro model: dormancy (butyrate + nitrate, low O2), time point: terminal (~4-5 doublings, model-specific) | 0.0374 | 0.987 | -0.16 | 0.347 | 0.0703
in vitro model: standard 7H9 glycerol, time point: constant = terminal | 0.0722 | 0.939 | -0.0733 | 0.27 | 0.0151
in vitro model: valerate, time point: constant (~7 days, model-specific) | 0.0578 | 0.912 | -0.0907 | 1.13 | –
in vitro model: valerate, time point: terminal (~4-5 doublings, model-specific) | 0.0274 | 0.963 | -0.0942 | 1.33 | 1.01
